Source: patent US8569448B2, “NMDAR biomarkers for diagnosis and treatment of traumatic brain injury and other disorders” (Grace Laboratories, LLC, priority 2006, dated 2013)

Legend:
[1] = tested on: isolated giant neurons of mollusk Planorbarius Corneus; assay: physiological functions in isolated giant neurons of mollusk; type: cell-based
Description: Several double derivatives of glutamic acid {E-(CH2)n-E} or containing amino acids (glycine, lysine, histidine, and/or arginine, {E-amino acid-E}) including chelates (Fe2+, Mg2+, or Zn2+) were synthesized and used to study their physiological functions in isolated giant neurons of mollusk Planorbarius Corneus. […] The effect of these substances depended on the length of the amino acid chain (CH2)n between the residues of glutamic acid.
The Hill coefficient (nH) is a central parameter in the study of ligand-protein interactions, which measures the degree of co-operativity between subunits that bind the ligand in multi-subunit proteins. The most common usage of nH is as an estimate of the minimal number of interacting binding sites in positively co-operating systems. The Hill coefficient for tested compounds was about 0.75.

[2] = tested on: patients who had suffered an acute ischemic stroke; details: sublingual 2.0 g/day, five consecutive days, acute ischemic stroke within six hours

## N[C@@H](CCC(=O)O)C(=O)O [glutamate]
[1]; isolated giant neurons, application/injection of substance
  neuronal response evoked by application: biphasic responses

## NCC(=O)O [glycine]
[2]
  decrease of 30 day mortality compared to placebo: 20%

## glutamic acid-lysine Zn2+-arginin-glutamic acid
[1]; comparison among double derivatives
  effect on neurons depending on chain length between glutamic acid residues: maximal effect
